Entries after “also recorded” stand apart in the source; their conditions may differ. Read-outs that look alike come from different tables or passages of the source.
Assays:
[1] = tested on: SSc fibroblasts; experiment: Collagen (PIP) concentration in supernatant of SSc fibroblasts; assay type: cell-based, human; details: for reversal of AjA inhibitory effect on PIP/collagen production by PPAR-γ antagonist: antagonist 10 μM, pre-incubation 15 minutes before AjA
[2] = molecular target: CB2 receptor (Homo sapiens, UniProt P34972); details: cited from earlier work
Sequence of CB2 receptor (P34972 whole entry): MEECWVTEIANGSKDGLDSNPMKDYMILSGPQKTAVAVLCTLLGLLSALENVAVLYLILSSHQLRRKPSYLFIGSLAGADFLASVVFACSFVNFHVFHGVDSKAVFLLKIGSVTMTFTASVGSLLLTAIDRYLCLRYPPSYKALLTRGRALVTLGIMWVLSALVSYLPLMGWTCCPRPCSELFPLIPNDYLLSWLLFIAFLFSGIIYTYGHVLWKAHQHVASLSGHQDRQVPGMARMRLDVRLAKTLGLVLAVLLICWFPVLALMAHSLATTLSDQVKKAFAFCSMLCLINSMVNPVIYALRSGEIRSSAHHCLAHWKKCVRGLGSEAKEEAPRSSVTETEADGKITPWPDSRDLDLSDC

[3] = tested on: SSc and healthy fibroblasts; experiment: Cell viability (MTT assay); assay type: cell-based, human; details: AjA in concentrations up to 10 pM (so in the source), 24 hours, data not shown
Procedure: SSc and healthy fibroblasts were plated at a density of 100000 cells/well in 24 well plate and treated with AjA at concentrations of 0.1, 1, 5 and 10 μM for 24 hours in presence or absence of GW9662 at concentrations of 1 and 10 μM. Cell metabolic activity was measured by 3-(4,5-dimethylthiazol-2-yl)-2,5-diphenyltetrazolium bromide (MTT) assay. After removal of 100 μl of the growth medium, MTT was added at a final concentration of 3 mg/ml, and the cells were incubated at 37° C. for an additional 4 hours. Formazan crystals were dissolved in DMSO and optical density was measured at 570 nm using a spectrophotometer.

[4] = tested on: humans; details: doses up to 80 mg/day, cited from earlier work
[5] = tested on: TGF-beta; experiment: TGF-beta supernatant levels (ELISA) of SSc fibroblasts; assay type: cell-based, human
Procedure: (§1) SSc and healthy dermal fibroblasts were cultured in DMEM containing 2.5% of fetal calf serum (FCS) for 24 hours before the experiments. Dermal fibroblasts were incubated with AjA (JB Therapeutics, Newton, Mass., USA), dissolved in dimethyl sulfoxide at 0.1, 1, 5 and 10 microM concentrations for 24 hours. Experiments with the PPAR-γ irreversible antagonist GW9662 (Tocris Bioscience, Bristol, UK), 1 and 10 microM, were performed by incubating dermal fibroblasts for 15 minutes before AjA treatment.
(§2) The supernatant was collected and stored at −20° C. prior to and after AjA±GW9662 treatment. An EIA kit (Takara Bio, Otsu, Japan) and ELISA kit (Euroclone, Lugano, Switzerland) were used to assess the procollagen type I carboxy-terminal peptide (PIP) and TGF-β and PGJ2 supernatant levels, respectively. Results are mean±SD of five separate experiments.

[6] = molecular target: CB1 receptor (Homo sapiens, UniProt P21554); details: cited from earlier work
Sequence of CB1 receptor (P21554 whole entry): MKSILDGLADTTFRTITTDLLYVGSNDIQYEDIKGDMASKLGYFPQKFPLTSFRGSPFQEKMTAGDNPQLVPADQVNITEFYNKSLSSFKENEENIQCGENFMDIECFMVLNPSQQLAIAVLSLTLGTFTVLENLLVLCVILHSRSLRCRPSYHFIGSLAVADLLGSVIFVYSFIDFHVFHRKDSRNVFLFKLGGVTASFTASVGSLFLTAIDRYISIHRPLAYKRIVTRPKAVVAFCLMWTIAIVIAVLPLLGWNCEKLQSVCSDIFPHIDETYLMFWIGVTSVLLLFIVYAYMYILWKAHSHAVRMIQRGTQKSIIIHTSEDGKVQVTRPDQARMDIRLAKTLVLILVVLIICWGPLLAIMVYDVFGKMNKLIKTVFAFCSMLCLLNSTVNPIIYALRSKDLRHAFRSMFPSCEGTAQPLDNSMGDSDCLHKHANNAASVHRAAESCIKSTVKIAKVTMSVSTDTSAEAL

[7] = molecular target: T1, peroxisome proliferated-activated receptor-γ (PPAR-γ) (Homo sapiens, UniProt P37231); details: cited from earlier work
T1 sequence (P37231 1-505): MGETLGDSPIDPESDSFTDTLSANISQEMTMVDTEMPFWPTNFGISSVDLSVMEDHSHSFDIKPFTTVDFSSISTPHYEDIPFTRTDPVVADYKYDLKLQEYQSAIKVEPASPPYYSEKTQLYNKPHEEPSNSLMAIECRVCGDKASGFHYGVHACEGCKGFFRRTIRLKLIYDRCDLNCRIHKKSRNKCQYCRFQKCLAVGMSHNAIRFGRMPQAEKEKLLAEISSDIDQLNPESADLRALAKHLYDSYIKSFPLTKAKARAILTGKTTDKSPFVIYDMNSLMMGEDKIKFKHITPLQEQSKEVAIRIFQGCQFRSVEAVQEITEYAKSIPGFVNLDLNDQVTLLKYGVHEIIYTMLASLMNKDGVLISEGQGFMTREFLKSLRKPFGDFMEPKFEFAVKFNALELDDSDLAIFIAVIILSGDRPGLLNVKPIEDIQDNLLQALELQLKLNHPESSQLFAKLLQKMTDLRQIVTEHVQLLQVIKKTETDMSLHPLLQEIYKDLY

[8] = tested on: bleomycin-induced dermal fibrosis in DBA/2J mice; experiment: Bleomycin-induced dermal fibrosis; assay type: in vivo
Procedure: Skin fibrosis was induced in two groups of 6-week old DBA/2J mice by local injection of bleomycin. Briefly, 100 microliter of BLM dissolved in 0.9% NaCI at a concentration of 0.5 mg/ml were administered every other day, in well defined areas (1 cm^2) of the upper back. One group of BLM-challenged mice received orally AjA 1 mg/kg/day, dissolved in seed oil. Subcutaneous injections of 100 ul 0.9% NaCI were used as controls. After 21 days, animals were killed by cervical dislocation. The injected skin was removed and processed for analysis. Each treatment group consisted of eight mice. The local ethical committee approved all animal experiments. […].
Three lesional skin samples were taken from every animal of each group and 5 μm skin sections (three for each skin sample) were stained with haematoxylin and eosin. Dermal thickness was calculated at 10× microscopic magnification by measuring the distance between the dermal—epidermal junction and the dermal—subcutaneous fat junction (micrometer) in five randomly selected fields for each skin section. Results were expressed as mean±SD. Two different examiners performed the evaluation blindly.
The collagen content of lesional skin was evaluated by colourimetric quantification of hydroxyproline on three different skin biopsies (3 mm punch) taken from every animal in each group. 15 Absorbencies were measured at 560 nm in triplicate. The results were expressed as μg of hydroxyproline per biopsy (mean±SD).
Skin sections (5 μm) were processed in order to evaluate expression of a smooth muscle actin (α-SMA) (mouse monoclonal antibody) (Santa Cruz Biotechnology, Santa Cruz, Calif., USA) After deparaffinization, skin sections were incubated with 3% bovine serum albumin for 30 minutes to block nonspecific binding, followed by incubation with 3% H2O2 for 5 minutes to block endogenous peroxidase activity. A-SMA staining was performed according to the protocol of manufacturer using M.O.M kit (Vector, UK). Staining was visualized with diaminobenzidine, using a peroxidase substrate kit (Dako, Glostrup Denmark). Cell counts were performed blindly by two different operators, at 40× magnification, in five non-contiguous microscope fields of three sections from each lesional skin sample. Results are expressed as mean±SD of positive spindle-shaped fibroblastic cells per field.

[9] = tested on: embryogenic fibroblastic 3T3 L1 cells; details: process mediated by PPAR-γ; cited from earlier work
[10] = tested on: 15d-PGJ2; experiment: 15d-PGJ2 supernatant levels (ELISA) of SSc fibroblasts; assay type: cell-based, human; details: incubation with AjA
Procedure: as §1, §2

[11] = tested on: PPAR-γ; experiment: PPAR-γ expression by Western blot in SSc fibroblasts; assay type: cell-based, human; details: AjA 5 microM and 10 microM
Procedure: as §1
After rinsing twice with PBS, cells were lysed with Ripa buffer (Santa Cruz Biotechnology, Santa Cruz, Calif., USA). Subsequently, cell lysates were incubated on ice for 30 minutes and centrifuged at 14,000 g for 20 minutes. Protein concentrations were measured using the Bradford assay (Bio-Rad, Reinach, Switzerland). […] After incubation with horseradish peroxidase (HRP)-conjugated donkey anti-goat antibodies Santa Cruz Biotechnology) at a dilution of 1:10000 for 45 minutes, signals were detected with ECL Western Blotting Detection Reagents (Amersham Bioscience, Freiburg, Germany) and exposure to x-ray film (SuperRX; Fuji, Dusseldorf, Germany). For confirmation of equal loading of proteins, the amount of alpha-tubulin was determined using mouse anti-human a-tubulin antibodies (dilution 1:1,000; Sigma) and HRP-conjugated rabbit anti-mouse antibodies (dilution 1:5000; Santa Cruz). […]

[12] = tested on: bleomycin-induced lung fibrosis; experiment: Bleomycin lung fibrosis, Day 21 histology of lung; assay type: in vivo
[13] = listed as (6aR,10aR)-4-(1,1-dimethylheptyl)-Δ8-tetrahydro-cannabinol-9-carboxylic acid
[14] = AjA 10 pM (so in the source), SSc fibroblasts
[15] = AjA 1 mg/kg/day, BLM-challenged mice
[16] = AjA 1 mg/kg/day, after treatment

SMILES: O=C(Nc1ccccc1)c1cc([N+](=O)[O-])ccc1Cl [GW9662, reference compound]
- reversal of AjA inhibitory effect on PIP/collagen production by PPAR-γ antagonist ([1]; SSc fibroblasts): completely reverted
- reversal of AjA inhibitory effect on PIP/collagen production by PPAR-γ antagonist ([1]; SSc fibroblasts, listed as GW966): completely prevented the anti-fibrotic effects of AjA
- prevention of AjA inhibitory effect on collagen production by PPAR-γ antagonist, dose dependence ([1]; antagonist 1-10 μM pre-incubation): prevented by GW9662 in a dose-dependent manner

SMILES: CCCCCCC(C)(C)c1cc(O)c2c(c1)OC(C)(C)[C@@H]1CC=C(C(=O)O)C[C@@H]21 [AjA, (6aR,10aR)-3-(1,1-dimethylheptyl)-6a,7,10,10a-tetrahydro-1-hydroxy-6,6-dimethyl-6H-Dibenz o(b,d)pyran-9-carboxylic acid]
- affinity for CB2 receptor [2]: weak ligand
- affinity for CB2 receptor [2, 13]: high affinity
- metabolic activity measured by the MTT assay [3]: not affected
- tolerability in humans ([4]; without significant psychotropic effects): well tolerated
- chronic neuropathic pain in humans [4]: can reduce chronic neuropathic pain
- duration of significant TGF-beta downregulation [5, 14]: ≤ 24 h
- time of maximum TGF-beta inhibition [5, 14]: 2 h
- supernatant TGF-beta ([5]; AjA 5 and 10 microM, SSc fibroblasts): significant reduction of supernatant TGF-beta
- time of maximum TGF-beta suppression ([5]; SSc fibroblasts, AjA): 2 h
- reduction in TGF-beta concentrations in supernatants from SSc fibroblasts ([5]; incubation with AjA, dose-dependent): up to 50%
- affinity for CB1 receptor [6]: weak ligand
- affinity for CB1 receptor [6, 13]: high affinity
- supernatant PIP levels, dose dependence ([1]; AjA 0.1, 1, 5 and 10 μM, 24 hours, SSc fibroblasts): dose-dependently decreased the levels of PIP; also recorded: dose-dependent reduction of supernatant PIP levels
- inhibition at 10 µM ([1]; Homo sapiens, Fibroblast, AjA 10 μM, 24 hours, SSc fibroblasts supernatant, read-out: mean PIP reduction (maximal inhibition)): ≤ 60%
- binding to and activation of PPAR-γ [7]: binds to and activates
- dermal thickness of lesional skin ([8]; AjA 1 mg/kg/day orally, 21 days, BLM-challenged DBA/2J mice): reduced skin thickness nearly to control levels; also recorded: dermal thickness was equal to control group
- hydroxyproline content of lesional skin (collagen deposition) ([8]; AjA 1 mg/kg/day, 21 days, BLM-challenged mice): completely abrogated the collagen deposition induced by BLM; also recorded: dermal thickness was equal to control group
- alpha-SMA positive cells, immunohistochemistry [8, 15]: strong downregulation of alpha-SMA positive cells
- leukocyte infiltration, ECM accumulation and fat layer replacement in lesional skin (histology) [8, 15]: the subcutaneous leukocyte infiltration, the accumulation of ECM and the fat layer replacement were reduced; also recorded: strongly reduced the leukocyte infiltration
- reduction of number of myofibroblasts (α-SMA positive spindle-shaped fibroblastic cells) in lesional skin [8, 15]: up to 26%
- body weight, BLM/AjA group vs BLM group [8, 16]: did not differ in terms of body weight
- signs of toxicity (ruffled fur, reduced activity) [8, 16]: no other signs of toxicity
- differentiation of 3T3 L1 cells into adipocytes [9]: stimulates the differentiation of embryogenic fibroblastic 3T3 L1 cells into adipocytes
- levels of 15d-PGJ2 in supernatants of SSc fibroblasts [10]: strongly increased the levels of 15d-PGJ2 in dose-dependent manner
- PPAR-γ protein expression in SSc fibroblasts [11]: completely restored the expression of PPAR-γ
- lung fibrosis (histology) ([12]; AjA 1 and 5 mg/kg qd x 21 d, bleomycin): fibrosis was significantly inhibited
- parenchymal infiltration of leukocytes in lung ([12]; AjA qd x 21 d, more evident in the 5 mg/kg group): parenchymal infiltration of leukocytes was reduced

Source: patent US20180116999A1, “METHODS OF TREATING FIBROTIC DISEASES USING TETRAHYDROCANNABINOL-11-OIC ACIDS” (Corbus Pharmaceuticals, Inc., priority 2011, published 2018)
